Key:
Type in all cases: cell-based
E. coli DH5α = experiment: Antibacterial activity: MIC and growth curve against E. coli DH5α in 96-well plate; conditions: minimal inhibitory concentration against E. coli DH5α; 96-well plate, 5×10^5 CFU/mL, 37° C., judged after 8 h
In short: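 Log-phase bacteria (OD600 ~0.5) resuspended in LB at 5×10^5 CFU/mL, exposed to recombinant protein at 50, 25, 12.5 μg/mL final in triplicate, 37 °C shaking at 175 rpm. OD600 read every 30 min; MIC is lowest concentration showing no growth.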

E. coli BL21 = experiment: MIC against Gram-negative bacteria: E. coli BL21; conditions: for MIC (μg/mL) E. coli BL21 / MIC: 10 h cultivation at 37° C.
In short: (§1)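 Inocula prepared by growing LB cultures at 37° C to 0.5 McFarland, centrifuging at 4000×g, and resuspending in fresh medium. Final density 5×10^5 CFU/mL per well with two-fold dilutions of purified EGF domain protein; shaking incubation at 37° C.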

Pseudomonas aeruginosa = experiment: MIC against Gram-negative bacteria: Pseudomonas aeruginosa; conditions: for MIC (μg/mL) P. aeruginosa / MIC: 10 h cultivation at 37° C., P. aeruginosa
In short: as §1

Klebsiella pneumonia = experiment: MIC against Gram-negative bacteria: Klebsiella pneumonia; conditions: for MIC (μg/mL) K. pneumonia / MIC: 10 h cultivation at 37° C., K. pneumonia
In short: as §1

Enterobacter cloacae = experiment: MIC against Gram-negative bacteria: Enterobacter cloacae; conditions: for MIC (μg/mL) E. cloacae / MIC: 10 h cultivation at 37° C., E. cloacae
In short: as §1

Aeromonas hydrophila = experiment: MIC against Gram-negative bacteria: Aeromonas hydrophila; conditions: for MIC (μg/mL) A. hydrophila / MIC: 10 h cultivation at 37° C., A. hydrophila
In short: as §1

Citrobacter diversus = experiment: MIC against Gram-negative bacteria: Citrobacter diversus; conditions: for MIC (μg/mL) C. diversus / MIC: 10 h cultivation at 37° C., C. diversus
In short: as §1

Moraxella catarrhalis = experiment: MIC against Gram-negative bacteria: Moraxella catarrhalis; conditions: for MIC (μg/mL) M. catarrhalis / MIC: 10 h cultivation at 37° C., M. catarrhalis
In short: as §1

Proteus mirabilis = experiment: MIC against Gram-negative bacteria: Proteus mirabilis; conditions: for MIC (μg/mL) P. mirabilis / MIC: 10 h cultivation at 37° C., P. mirabilis
In short: as §1

Proteus vulgaris = experiment: MIC against Gram-negative bacteria: Proteus vulgaris; conditions: for MIC (μg/mL) P. vulgaris / MIC: 10 h cultivation at 37° C., P. vulgaris
In short: as §1

Serratia marcescens = experiment: MIC against Gram-negative bacteria: Serratia marcescens; conditions: for MIC (μg/mL) S. marcescens / MIC: 10 h cultivation at 37° C., S. marcescens
In short: as §1

[1] = 96-well plate, 5×10^5 CFU/mL, 37° C., 10 h

PRT249 (EAICAKPCLNGGVCVRPDQCECAPGWGGKHCH; listed as Homo sapiens)
MIC (E. coli DH5α): 25 µg/mL | MIC (μg/mL) E. coli BL21 (E. coli BL21; E. coli BL21, 5×10^5 CFU/mL): 12.5 µg/mL | MIC (μg/mL) P. aeruginosa (Pseudomonas aeruginosa; 5×10^5 CFU/mL): 12.5 µg/mL | MIC (μg/mL) K. pneumonia (Klebsiella pneumonia; 5×10^5 CFU/mL): 12.5 µg/mL | MIC (μg/mL) E. cloacae (Enterobacter cloacae; 5×10^5 CFU/mL): 25 µg/mL | MIC (μg/mL) A. hydrophila (Aeromonas hydrophila; 5×10^5 CFU/mL): 12.5 µg/mL | MIC (μg/mL) C. diversus (Citrobacter diversus; 5×10^5 CFU/mL): 25 µg/mL | MIC (μg/mL) M. catarrhalis (Moraxella catarrhalis; 5×10^5 CFU/mL): 12.5 µg/mL | MIC (μg/mL) P. mirabilis (Proteus mirabilis; 5×10^5 CFU/mL): 12.5 µg/mL | MIC (μg/mL) P. vulgaris (Proteus vulgaris; 5×10^5 CFU/mL): 12.5 µg/mL | MIC (μg/mL) S. marcescens (Serratia marcescens; 5×10^5 CFU/mL): 12.5 µg/mL

PRT969 (LLSPCTPNPCEHGGRCESAPGQLPVCSCPQGWQGPRCQ; listed as Homo sapiens)
MIC (E. coli DH5α): 50 µg/mL | MIC (E. coli BL21; E. coli BL21): 12.5 µg/mL | MIC (Pseudomonas aeruginosa): 25 µg/mL | MIC (Klebsiella pneumonia): 50 µg/mL | MIC (Enterobacter cloacae): 25 µg/mL | MIC (Aeromonas hydrophila): 25 µg/mL | MIC (Citrobacter diversus): 12.5 µg/mL | MIC (Moraxella catarrhalis): 25 µg/mL | MIC (Proteus mirabilis): 50 µg/mL | MIC (Proteus vulgaris): 25 µg/mL | MIC (Serratia marcescens): 12.5 µg/mL

PRT915 (ASSPCLGGNPCYNQGTCEPTSESPFYRCLCPAKFNGLLCH; listed as Homo sapiens)
MIC (E. coli DH5α): 25 µg/mL | MIC (E. coli BL21; E. coli BL21): 25 µg/mL | MIC (Pseudomonas aeruginosa): 50 µg/mL | MIC (Klebsiella pneumonia): 25 µg/mL | MIC (Enterobacter cloacae): 12.5 µg/mL | MIC (Aeromonas hydrophila): 25 µg/mL | MIC (Citrobacter diversus): 25 µg/mL | MIC (Moraxella catarrhalis): 50 µg/mL | MIC (Proteus mirabilis): 25 µg/mL | MIC (Proteus vulgaris): 25 µg/mL | MIC (Serratia marcescens): 25 µg/mL

PRT1034 (DENECEQNNGGCSEICVNLKNSYRCECGVGRVLRSDGKTCE; listed as Homo sapiens)
MIC (E. coli DH5α): 25 µg/mL | MIC (E. coli BL21; E. coli BL21): 50 µg/mL | MIC (Pseudomonas aeruginosa): 25 µg/mL | MIC (Klebsiella pneumonia): 12.5 µg/mL | MIC (Enterobacter cloacae): 50 µg/mL | MIC (Aeromonas hydrophila): 50 µg/mL | MIC (Citrobacter diversus): 50 µg/mL | MIC (Moraxella catarrhalis): 12.5 µg/mL | MIC (Proteus mirabilis): 50 µg/mL | MIC (Proteus vulgaris): 12.5 µg/mL | MIC (Serratia marcescens): 50 µg/mL

PRT1324 (PITSCLEQTGKCHPLASCQSTSSGVWSCVCQEGYEGDGFL; listed as Homo sapiens)
MIC (E. coli DH5α): 12.5 µg/mL | MIC against E. coli BL21 (E. coli BL21; E. coli BL21, 96-well plate, 5×10^5 CFU/mL, 37° C., 10 h): 25 µg/mL | MIC against P. aeruginosa (Pseudomonas aeruginosa; Pseudomonas aeruginosa, 96-well plate, 5×10^5 CFU/mL, 37° C., 10 h): 50 µg/mL | MIC against K. pneumonia (Klebsiella pneumonia; Klebsiella pneumonia, 96-well plate, 5×10^5 CFU/mL, 37° C., 10 h): 25 µg/mL | MIC against E. cloacae (Enterobacter cloacae; Enterobacter cloacae, 96-well plate, 5×10^5 CFU/mL, 37° C., 10 h): 12.5 µg/mL | MIC against A. hydrophila (Aeromonas hydrophila; Aeromonas hydrophila, 96-well plate, 5×10^5 CFU/mL, 37° C., 10 h): 50 µg/mL | MIC against C. diversus (Citrobacter diversus; Citrobacter diversus, 96-well plate, 5×10^5 CFU/mL, 37° C., 10 h): 25 µg/mL | MIC against M. catarrhalis (Moraxella catarrhalis; Moraxella catarrhalis, 96-well plate, 5×10^5 CFU/mL, 37° C., 10 h): 12.5 µg/mL | MIC against P. mirabilis (Proteus mirabilis; Proteus mirabilis, 96-well plate, 5×10^5 CFU/mL, 37° C., 10 h): 25 µg/mL | MIC against P. vulgaris (Proteus vulgaris; Proteus vulgaris, 96-well plate, 5×10^5 CFU/mL, 37° C., 10 h): 12.5 µg/mL | MIC against S. marcescens (Serratia marcescens; Serratia marcescens, 96-well plate, 5×10^5 CFU/mL, 37° C., 10 h): 25 µg/mL

PRT712 (GSNSCQLNNGGCSQLCLPTSETTRTCMCTVGYYLQKNRMSCQ; listed as Homo sapiens)
MIC (E. coli DH5α): 25 µg/mL | MIC E. coli BL21 (E. coli BL21; [1]): 12.5 µg/mL | MIC P. aeruginosa (Pseudomonas aeruginosa; [1]): 50 µg/mL | MIC K. pneumonia (Klebsiella pneumonia; [1]): 25 µg/mL | MIC E. cloacae (Enterobacter cloacae; [1]): 50 µg/mL | MIC A. hydrophila (Aeromonas hydrophila; [1]): 25 µg/mL | MIC C. diversus (Citrobacter diversus; [1]): 12.5 µg/mL | MIC M. catarrhalis (Moraxella catarrhalis; [1]): 25 µg/mL | MIC P. mirabilis (Proteus mirabilis; [1]): 50 µg/mL | MIC P. vulgaris (Proteus vulgaris; [1]): 25 µg/mL | MIC S. marcescens (Serratia marcescens; [1]): 12.5 µg/mL

PRT786 (YGKDCALICQCQNGADCDHISGQCTCRTGFMGRHCE; listed as Homo sapiens)
MIC (E. coli DH5α): 50 µg/mL | MIC (μg/mL) E. coli BL21 (E. coli BL21; E. coli BL21, 5×10^5 CFU/mL): 25 µg/mL | MIC (μg/mL) P. aeruginosa (Pseudomonas aeruginosa; 5×10^5 CFU/mL): 12.5 µg/mL | MIC (μg/mL) K. pneumonia (Klebsiella pneumonia; 5×10^5 CFU/mL): 50 µg/mL | MIC (μg/mL) E. cloacae (Enterobacter cloacae; 5×10^5 CFU/mL): 12.5 µg/mL | MIC (μg/mL) A. hydrophila (Aeromonas hydrophila; 5×10^5 CFU/mL): 12.5 µg/mL | MIC (μg/mL) C. diversus (Citrobacter diversus; 5×10^5 CFU/mL): 25 µg/mL | MIC (μg/mL) M. catarrhalis (Moraxella catarrhalis; 5×10^5 CFU/mL): 12.5 µg/mL | MIC (μg/mL) P. mirabilis (Proteus mirabilis; 5×10^5 CFU/mL): 25 µg/mL | MIC (μg/mL) P. vulgaris (Proteus vulgaris; 5×10^5 CFU/mL): 12.5 µg/mL | MIC (μg/mL) S. marcescens (Serratia marcescens; 5×10^5 CFU/mL): 12.5 µg/mL

Reference: US9833497B2, “Human originated EGF domain proteins and use of the same” (CHENGDU SOURCEBIO LIMITED-LIABILITY COMPANY, priority 2013, dated 2017)
